Assay results from patent publication US20240053332A1, “Methods and Compositions Utilising Vitamin B12 Binding” (priority 2020, published 2024).

Columns and labels:
[1] = tested on: Bacteroides thetaiotaomicron (Bt); test: growth of Bt dependent upon vitB12; assay type: cell-based
Procedure: Less growth is seen with serial 10-fold dilutions of B12-bound BEVs. By contrast and as controls, no growth is seen by adding 1 mM vitB12 directly to the cultures or by adding BEVs alone with no bound vitB12.

BtuG2 = test: affinity of BtuG2 protein for B12; assay type: binding
From the text: We believe that it is possible to exploit this tight interaction in the same way as the Biotin-avidin system. We have shown that it is possible to attach protein-linkers to vitamin B12, allow vitamin B12 to become attached to proteins that have the necessary exposed amino acid side chains. […] The attachment is specific and strong. • (b) With Mologic, we have shown that a B12-maleimide will bind to a lactate dehydrogenase antibody, allowing the complex to be used in an immunoassay. This provides the proof of principal that the B12-B12 binding protein system can be exploited in therapeutic assays and diagnostics in the same way as biotin-avidin.

Substance: cobalamin [vitB12]
- growth of Bt in vitB12-deficient media ([1]; FIG. 1 left panel, 1 mM vitB12, bound to BEVs or added directly to the cultures): no growth
- vitB12 concentration giving maximal growth of Bt ([1]; FIG. 1 right panel, no growth in its absence (0 nM)): 100 nM
- affinity of BtuG2 for B12 (BtuG2): femtomolar region
